Results published in the supplement of paper PMC6045584.
± gives the standard deviation of the averaged measurements.

What was measured:
CRIZOTINIB = compound: C[C@@H](Oc1cc(-c2cnn(C3CCNCC3)c2)cnc1N)c1c(Cl)ccc(F)c1Cl [CRIZOTINIB]; assay: surviving fraction relative to DMSO-only wells; higher = less growth inhibition; settings: exposure time: 5 days
In short: (§1)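 Viability values are CellTiter-Glo luminescence readings, given as surviving fraction against the median of DMSO-only wells. The readings were taken after 10 minutes at room temperature, following five days of continuous exposure to inhibitors at 0.5, 1, 5, 10, 50, 100, 500 and 1000 nM that began 24 hours after log-phase tumour cell lines were seeded at 250–500 cells per well in 384-well plates. Every line was screened three times and kept only if replicate Pearson r >0.7 and median Z' >0.3.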

[1] = compound: C[C@@H](Oc1cc(-c2cnn(C3CCNCC3)c2)cnc1N)c1c(Cl)ccc(F)c1Cl; assay: as above; settings: exposure time: 5 days
In short: as §1

Test System | surviving fraction (CRIZOTINIB; 1 nM) | surviving fraction (CRIZOTINIB; 5 nM) | surviving fraction (CRIZOTINIB; 10 nM) | surviving fraction (CRIZOTINIB; 50 nM) | surviving fraction (CRIZOTINIB; 100 nM) | surviving fraction (CRIZOTINIB; 500 nM) | surviving fraction (CRIZOTINIB; 1000 nM) | surviving fraction ([1]; 50 nM) | surviving fraction ([1]; 500 nM) | surviving fraction ([1]; 1000 nM) | surviving fraction (CRIZOTINIB; 0.5 nM) | surviving fraction ([1]; 0.5 nM) | surviving fraction ([1]; 1 nM) | surviving fraction ([1]; 5 nM) | surviving fraction ([1]; 100 nM) | surviving fraction ([1]; 10 nM)
CCK81 LARGE INTESTINE | 0.854 ± 0.084 | 0.776 ± 0.15 | 0.788 ± 0.087 | 0.749 ± 0.11 | 0.718 ± 0.028 | 0.62 ± 0.12 | 0.315 ± 0.053 | – | – | – | – | – | – | – | – | –
HMT3552 BREAST | 1.05 ± 0.073 | 1.04 ± 0.015 | 1.06 ± 0.015 | 1.07 ± 0.023 | 1.18 ± 0.035 | 0.597 ± 0.045 | 0.201 ± 0.012 | 1.17 | 0.393 | 0.211 | 1.01 ± 0.042 | – | – | – | – | –
G292 BONE | 1.04 ± 0.055 | 1.07 ± 0.012 | 1.08 ± 0.038 | 0.9452 ± 0.0094 | 0.951 ± 0.033 | 0.634 ± 0.025 | 0.41 ± 0.016 | 0.948 ± 0.038 | 0.564 ± 0.031 | 0.38 ± 0.01 | 1.02 ± 0.037 | 0.961 ± 0.025 | 0.971 ± 0.032 | 0.931 ± 0.088 | 0.871 ± 0.011 | –
HCC38 BREAST | 1.18 ± 0.06 | 1.31 ± 0.069 | 1.28 ± 0.041 | 1.29 ± 0.13 | 1.28 ± 0.13 | – | 0.63 ± 0.09 | 1.09 ± 0.22 | – | 0.66 ± 0.14 | 1.27 ± 0.15 | 0.862 ± 0.14 | – | 0.928 ± 0.18 | 1.13 ± 0.23 | 0.928 ± 0.16
HS578T BREAST | 1.13 ± 0.17 | 1.13 ± 0.11 | 1.14 ± 0.18 | 1.07 ± 0.25 | 0.994 ± 0.14 | 0.833 ± 0.066 | 0.722 ± 0.021 | 0.936 ± 0.1 | 0.552 ± 0.13 | 0.563 ± 0.11 | 1.04 ± 0.16 | – | 0.827 ± 0.12 | 0.845 ± 0.063 | 0.85 ± 0.1 | 0.959 ± 0.16
HMLE3 BREAST | – | 1.18 ± 0.081 | 1.07 ± 0.089 | 1.05 ± 0.054 | 1.04 ± 0.12 | 0.828 ± 0.062 | 0.649 ± 0.046 | 0.941 ± 0.063 | 0.599 ± 0.051 | 0.38 ± 0.011 | 1.07 ± 0.043 | 0.873 ± 0.031 | 0.829 ± 0.028 | – | 0.843 ± 0.019 | –
HS57T BREAST | 1.09 ± 0.056 | 1.14 ± 0.026 | 1.07 ± 0.025 | – | – | 0.676 ± 0.011 | 0.56 ± 0.046 | 0.971 ± 0.04 | 0.568 ± 0.016 | 0.492 ± 0.021 | 1 ± 0.02 | 0.904 ± 0.058 | – | – | 0.926 ± 0.06 | 0.98 ± 0.027
HCC70 BREAST | 1.1 ± 0.13 | 1.16 ± 0.022 | – | 1.18 ± 0.1 | – | 1.07 ± 0.059 | 0.818 ± 0.12 | – | 0.964 ± 0.04 | 0.736 ± 0.034 | 1.09 ± 0.06 | – | 0.95 ± 0.095 | – | 1.14 ± 0.12 | –
